US5041567A, “Antibacterial monic acid derivatives” (Beecham Group plc, priority 1982, dated 1991)
≈ marks a conversion by molar mass, not a printed value. Like-named read-outs stand apart in the source and are kept apart here.

Assays:
[1] = tested on: Haemophilus influenzae Wy21; experiment: MIC against human bacteria in vitro; type: cell-based
[2] = tested on: M. bovigenitalium ATCC 14173; experiment: MIC against mycoplasma in vitro; type: cell-based; details: 144 h
M. hyorhinis ATCC 25021 = experiment: MIC against mycoplasma in vitro; type: cell-based; details: Mesomycoplasma hyorhinis, ATCC25021, 144 h
Past. multocida PA2 = experiment: MIC against veterinary bacteria in vitro; details: Pasteurella multocida, PA2, 18 h
Procedure: (§1) The activity of the compounds of the Examples against various veterinarily important bacteria, was assayed in vitro using two-fold serial dilutions in Diagnostic Sensitivity Test Agar inoculated with 10^4 organisms.

Sarcina lutea 8340 = experiment: MIC against human bacteria in vitro; type: cell-based; details: Micrococcus luteus; Sarcina lutea 8340; 5% chocolated horse blood agar, 18 hours; read-out: MIC
S. typhimurium S18 = experiment: MIC against veterinary bacteria in vitro; details: Salmonella enterica, TYPHIMURIUM, 18 h
Procedure: as §1

S. dublin S7 = experiment: MIC against veterinary bacteria in vitro; details: Salmonella enterica, S7, 18 h
Procedure: as §1

M. suipneumoniae HK(2) = experiment: MIC against mycoplasma in vitro; type: cell-based; details: Mesomycoplasma hyopneumoniae, 144 h
M. suipneumoniae LABER = experiment: MIC against mycoplasma in vitro; type: cell-based; details: Mesomycoplasma hyopneumoniae, 144 h
[3] = tested on: Strep. pyogenes R80/421-A; experiment: MIC against human bacteria in vitro; type: cell-based; details: Streptococcus pyogenes; Strep. pyogenes R80/421-A; 5% chocolated horse blood agar, 18 hours; read-out: MIC
M. hyorhinis ATCC 23234 = experiment: MIC against mycoplasma in vitro; type: cell-based; details: Mesomycoplasma hyorhinis, ATCC23234, 144 h
[4] = tested on: Erysipelothrix rhusiopathiae NCTC 8163; experiment: MIC against veterinary bacteria in vitro; details: Erysipelothrix rhusiopathiae, NCTC8163, 18 h
Procedure: as §1

Strep. agalactiae 2788-B = experiment: MIC against human bacteria in vitro; type: cell-based; details: Streptococcus agalactiae; Strep. agalactiae 2788-B; 5% chocolated horse blood agar, 18 hours; read-out: MIC
Bacillus subtilis 6633 = experiment: MIC against human bacteria in vitro; type: cell-based
M. suipneumoniae NB12 = experiment: MIC against mycoplasma in vitro; type: cell-based; details: Mesomycoplasma hyopneumoniae, NB12, 144 h
Strep. uberis SPU1 = experiment: MIC against veterinary bacteria in vitro; details: Streptococcus uberis, SPU1, 18 h
Procedure: as §1

E. coli NCTC 10418 = experiment: MIC against human bacteria in vitro; type: cell-based; details: Escherichia coli, NCTC10418; E. coli NCTC 10418; agar with 5% chocolated horse blood, 18 hours, 37° C.; read-out: MIC
[5] = tested on: Corynebacterium xerosis 9755; experiment: MIC against human bacteria in vitro; type: cell-based; details: Corynebacterium xerosis 9755; 5% chocolated horse blood agar, 18 hours; read-out: MIC
M. suipneumoniae MS 16 = experiment: MIC against mycoplasma in vitro; type: cell-based; details: Mesomycoplasma hyopneumoniae, MS16, 144 h
K. aerogenes A = experiment: MIC against human bacteria in vitro; type: cell-based; details: Klebsiella aerogenes; K. aerogenes A; 5% chocolated horse blood agar, 18 hours; read-out: MIC
[6] = tested on: Staph. aureus 152 (pen. sens); experiment: MIC against veterinary bacteria in vitro; details: Staphylococcus aureus, 18 h
Procedure: as §1

Strep. spp. 64/848-C = experiment: MIC against human bacteria in vitro; type: cell-based; details: Strep. spp. 64/848-C; 5% chocolated horse blood agar, 18 hours; read-out: MIC
[7] = tested on: M. suipneumoniae ATCC 25095; experiment: MIC against mycoplasma in vitro; type: cell-based; details: Mesomycoplasma hyopneumoniae, ATCC25095, 144 h
[8] = tested on: Ps. aeruginosa NCTC 10662; experiment: MIC against human bacteria in vitro; type: cell-based; details: Pseudomonas aeruginosa, NCTC10662; Ps. aeruginosa NCTC 10662; 5% chocolated horse blood agar, 18 hours; read-out: MIC
Staph. aureus Russell = experiment: MIC against human bacteria in vitro; type: cell-based; details: Staphylococcus aureus; Staph. aureus Russell; 5% chocolated horse blood agar, 18 hours; read-out: MIC
[9] = tested on: Corynebacterium pyogenes CY1; experiment: MIC against veterinary bacteria in vitro; details: CY1, 18 h
Procedure: as §1

E. coli ESS = experiment: MIC against human bacteria in vitro; type: cell-based; details: Escherichia coli; E. coli ESS; 5% chocolated horse blood agar, 18 hours; read-out: MIC
Staph. aureus W2827 = experiment: MIC against human bacteria in vitro; type: cell-based; details: Staphylococcus aureus; Staph. aureus W2827; 5% chocolated horse blood agar, 18 hours; read-out: MIC
M. suipneumoniae TAM 6N = experiment: MIC against mycoplasma in vitro; type: cell-based; details: Mesomycoplasma hyopneumoniae, TAM6N, 144 h
Staph. aureus Oxford = experiment: MIC against veterinary bacteria in vitro; details: Staphylococcus aureus, 18 h
Procedure: as §1

M. suipneumoniae Str. 11 = experiment: MIC against mycoplasma in vitro; type: cell-based; details: Mesomycoplasma hyopneumoniae
Strep. faecalis I = experiment: MIC against human bacteria in vitro; type: cell-based; details: Enterococcus faecalis; Strep. faecalis I; 5% chocolated horse blood agar, 18 hours; read-out: MIC
Strep. dysgalactiae SPD1 = experiment: MIC against veterinary bacteria in vitro; details: Streptococcus dysgalactiae, SPD1, 18 h
Procedure: as §1

Row | SMILES | MIC [2] [µg/mL] | MIC (Past. multocida PA2) [µg/mL] | MIC (Sarcina lutea 8340) [µg/mL] | MIC (S. typhimurium S18) [µg/mL] | MIC (S. dublin S7) [µg/mL] | MIC (M. suipneumoniae LABER) [µg/mL] | MIC [3] [µg/mL] | MIC (M. hyorhinis ATCC 23234) [µg/mL] | MIC [4] [µg/mL] | MIC (Strep. agalactiae 2788-B) [µg/mL] | MIC (M. suipneumoniae NB12) [µg/mL] | MIC (Strep. uberis SPU1) [µg/mL] | MIC (E. coli NCTC 10418) [µg/mL] | MIC [5] [µg/mL] | MIC (M. suipneumoniae MS 16) [µg/mL] | MIC (K. aerogenes A) [µg/mL] | MIC [6] [µg/mL] | MIC (Strep. spp. 64/848-C) [µg/mL] | MIC [8] [µg/mL] | MIC (Staph. aureus Russell) [µg/mL] | further results
1 | C/C(=C\c1ncc(-c2cccc([S+](C)[O-])c2)o1)C[C@@H]1OC[C@H](C[C@@H]2O[C@H]2[C@@H](C)[C@H](C)O)[C@@H](O)[C@H]1O (stereo partly drawn) [Example 25, 5-m-Methylsulphinylphenyl-2-(1-normon-2-yl)oxazole A] | 0.25 (≈ 0.494 µM) | 2.5 (≈ 4.94 µM) | 128 (≈ 253 µM) | > 80 | > 80 | 0.25 (≈ 0.494 µM) | 2 (≈ 3.96 µM) | 1 (≈ 1.98 µM) | > 80 | 2 (≈ 3.96 µM) | 0.25 (≈ 0.494 µM) | 0.625 (≈ 1.24 µM) | > 128 | 128 (≈ 253 µM) | 0.25 (≈ 0.494 µM) | > 128 | 10 (≈ 19.8 µM) | 4 (≈ 7.91 µM) | > 128 | 32 (≈ 63.3 µM) | MIC ([1]; Haemophilus influenzae Wy21, 5% chocolated horse blood agar, 18 hours, read-out: MIC): 2 µg/mL (≈ 3.96 µM); MIC (M. hyorhinis ATCC 25021; M. hyorhinis ATCC 25021, 6 days, 37° C., read-out: MIC): 0.5 µg/mL (≈ 0.989 µM); MIC (M. suipneumoniae HK(2)): 1 µg/mL (≈ 1.98 µM); MIC (Bacillus subtilis 6633; Bacillus subtilis 6633, 5% chocolated horse blood agar, 18 hours, read-out: MIC): 2 µg/mL (≈ 3.96 µM); MIC ([7]; M. suipneumoniae ATCC 25095, 6 days, 37° C., read-out: MIC): 0.5 µg/mL (≈ 0.989 µM); MIC [9]: > 80 µg/mL; MIC (E. coli ESS): 4 µg/mL (≈ 7.91 µM); MIC (Staph. aureus W2827): 32 µg/mL (≈ 63.3 µM); MIC (M. suipneumoniae TAM 6N): 1 µg/mL (≈ 1.98 µM); MIC (Staph. aureus Oxford): 20 µg/mL (≈ 39.6 µM); MIC (M. suipneumoniae Str. 11; 144 h, M. suipneumoniae Str. 11, 6 days, 37° C., read-out: MIC): 0.5 µg/mL (≈ 0.989 µM); MIC (Strep. faecalis I): > 128 µg/mL; MIC (Strep. dysgalactiae SPD1): 1.25 µg/mL (≈ 2.47 µM)
2 | C/C(=C\c1ncc(-c2ccccc2[N+](=O)[O-])o1)C[C@@H]1OC[C@H](C[C@@H]2O[C@H]2[C@@H](C)[C@H](C)O)[C@@H](O)[C@H]1O [Example 26, 5-o-Nitrophenyl-2-(1-normon-2-yl)oxazole A] | 0.25 (≈ 0.512 µM) | 5 (≈ 10.2 µM) | > 128 | > 80 | > 80 | 2.5 (≈ 5.12 µM) | 1 (≈ 2.05 µM) | 2.5 (≈ 5.12 µM) | > 80 | 2 (≈ 4.09 µM) | 2.5 (≈ 5.12 µM) | 0.156 (≈ 0.319 µM) | > 128 | > 128 | 1 (≈ 2.05 µM) | > 128 | 2.5 (≈ 5.12 µM) | 2 (≈ 4.09 µM) | > 128 | 4 (≈ 8.19 µM) | MIC ([1]; Haemophilus influenzae, WY21, 18 h): 0.25 µg/mL (≈ 0.512 µM); MIC (M. hyorhinis ATCC 25021): 2.5 µg/mL (≈ 5.12 µM); MIC (M. suipneumoniae HK(2); M. suipneumoniae HK(2), 6 days, 37° C., read-out: MIC): 5 µg/mL (≈ 10.2 µM); MIC (Bacillus subtilis 6633; Bacillus subtilis, 6633, 18 h): 0.25 µg/mL (≈ 0.512 µM); MIC [7]: 2.5 µg/mL (≈ 5.12 µM); MIC [9]: > 80 µg/mL; MIC (E. coli ESS): 8 µg/mL (≈ 16.4 µM); MIC (Staph. aureus W2827): 4 µg/mL (≈ 8.19 µM); MIC (M. suipneumoniae TAM 6N; M. suipneumoniae TAM 6N, 6 days, 37° C., read-out: MIC): 5 µg/mL (≈ 10.2 µM); MIC (Staph. aureus Oxford): 2.5 µg/mL (≈ 5.12 µM); MIC (M. suipneumoniae Str. 11; STR.11, 144 h): 2.5 µg/mL (≈ 5.12 µM); MIC (Strep. faecalis I): > 128 µg/mL; MIC (Strep. dysgalactiae SPD1): 0.625 µg/mL (≈ 1.28 µM)
